# Assay results reported in patent US8669247B2, “2,5-disubstituted arylsulfonamide CCR3 antagonists” (Axikin Pharmaceuticals, Inc., priority 2009, dated 2014).
# Structures can show the parent of a compound that is named as a salt.
# Tested on: not given
# Experiment: not given
# Conditions: not given
row,SMILES,melting point [°C]
1,"N#Cc1ccc(Oc2cc(F)ccc2F)c(S(=O)(=O)N2CCNCC2)c1 (as salt: hydrochloride) [Compound 52, 4-(2,5-Difluorophenoxy)-3-(piperazin-1-ylsulfonyl)benzonitrile]",125 to 143
2,"CC1CN(S(=O)(=O)c2cc(C#N)ccc2Oc2cc(F)ccc2F)CC(C)N1 (stereo not drawn) (as salt: hydrochloride) [Compound 53, 4-(2,5-Difluorophenoxy)-3-(3,5-dimethylpiperazin-1-ylsulfonyl)benzonitrile]",157 to 159
3,"CC(C)N1CCN(S(=O)(=O)c2cc(C#N)ccc2Oc2cc(F)ccc2F)CC1 (as salt: hydrochloride) [Compound 54, 4-(2,5-Difluorophenoxy)-3-(4-isopropylpiperazin-1-ylsulfonyl)benzonitrile]",179 to 182
4,"CC1CN(S(=O)(=O)c2cc(C#N)ccc2Sc2cc(Cl)ccc2Cl)CC(C)N1 (stereo not drawn) (as salt: hydrochloride) [Compound 79, 4-(2,5-Dichlorophenylthio)-3-(3,5-dimethylpiperazin-1-ylsulfonyl)benzonitrile]",176 to 180
5,"N#Cc1ccc(Oc2cc(F)ccc2F)c(S(=O)(=O)N2CCOCC2)c1 [Compound 58, 4-(2,5-Difluorophenoxy)-3-(morpholinosulfonyl)benzonitrile]",165 to 168
6,"N#Cc1ccc(Sc2cc(Cl)ccc2Cl)c(S(=O)(=O)N2CCOCC2)c1 [Compound 82, 4-(2,5-Dichlorophenylthio)-3-(morpholinosulfonyl)benzonitrile]",216 to 219

# Biological target: T1, CCR3 receptor (UniProt P51677)
# T1 sequence (P51677 1-355): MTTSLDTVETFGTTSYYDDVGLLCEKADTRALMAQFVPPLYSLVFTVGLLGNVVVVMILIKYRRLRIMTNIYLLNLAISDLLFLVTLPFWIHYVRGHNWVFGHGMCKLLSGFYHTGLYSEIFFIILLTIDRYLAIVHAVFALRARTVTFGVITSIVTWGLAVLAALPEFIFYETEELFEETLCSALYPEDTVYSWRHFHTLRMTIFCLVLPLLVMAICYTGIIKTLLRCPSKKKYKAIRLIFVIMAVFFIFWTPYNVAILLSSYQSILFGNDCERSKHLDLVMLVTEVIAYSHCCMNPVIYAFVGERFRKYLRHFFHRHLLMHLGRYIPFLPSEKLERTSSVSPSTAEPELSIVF
# Experiment: CCR3 Receptor Binding Assay ([125I]-labeled human eotaxin/CCL11 displacement on cells)
# Conditions: Free (free form of the compound)
# Protocol: Cells were washed once with PBS and resuspended in a binding buffer (25 mM HEPES pH 7.6, 5 mM MgCl2, 1 mM CaCl2, 0.5% BSA, 0.1% NaN3), […] of cell suspension (2×10^5 cells/well) and 0.1 nM [^125I]-labeled human eotaxin/CCL11 (2000 Ci/mmol specific activity) were mixed in a 96-well U-bottom polypropylene plate, and incubated for 60 min at room temperature for the binding reaction. The cell suspension was then transferred to a filtration plate (#MAFB, Millipore), and washed 3 times with the binding buffer containing 0.5 M NaCl, scintillant added, and the radioactivity was counted on a TopCount (Packard). For the determination of non-specific binding, the cell suspension and [^125I]-labeled human eotaxin/CCL11 were incubated in the presence of 500 nM of unlabeled human eotaxin/CCL11. See, lino et al., “Molecular cloning and functional characterization of cynomolgus monkey (Macaca fascicularis) CC chemokine receptor, CCR3,” Cytokine 2002, 19, 276-286.
row,SMILES,Ki [nM]
1,"N#Cc1ccc(Oc2cc(F)ccc2F)c(S(=O)(=O)N2CCOCC2)c1 [Compound 58, 4-(2,5-Difluorophenoxy)-3-(morpholinosulfonyl)benzonitrile]",> 5
2,"N#Cc1ccc(Sc2cc(Cl)ccc2Cl)c(S(=O)(=O)N2CCOCC2)c1 [Compound 82, 4-(2,5-Dichlorophenylthio)-3-(morpholinosulfonyl)benzonitrile]",100 to 500
3,"CCCC(C)N1CCN(S(=O)(=O)c2cc(C#N)ccc2Oc2cc(Cl)ccc2Cl)CC1 (stereo not drawn) [Compound 90, 4-(2,5-Dichlorophenoxy)-3-(4-(pentan-2-yl)piperazin-1-ylsulfonyl)-benzonitrile]",10 to 25
4,"N#Cc1ccc(Oc2cc(Cl)ccc2Cl)c(S(=O)(=O)N2CCN(C3CCCCCC3)CC2)c1 [Compound 91, 3-(4-Cycloheptylpiperazin-1-ylsulfonyl)-4-(2,5-dichlorophenoxy)benzonitrile]",10 to 25
5,"CN1CCCN(S(=O)(=O)c2cc(C#N)ccc2Oc2cc(Cl)ccc2Cl)CC1 [Compound 92, 4-(2,5-Dichlorophenoxy)-3-(4-methyl-1,4-diazepan-1-ylsulfonyl)benzonitrile]",25 to 100
6,"CCCCc1nc(Cl)c2n1C(=O)N(C1CCN(S(=O)(=O)c3cc(C#N)ccc3Oc3cc(Cl)ccc3Cl)CC1)C2 [Compound 93, 3-(4-(5-Butyl-7-chloro-3-oxo-1H-imidazo[1,5-c]imidazol-2(3H)-yl)piperidin-1-ylsulfonyl)-4-(2,5-dichlorophenoxy)benzonitrile]",> 5
7,"N#Cc1ccc(Oc2cc(Cl)ccc2Cl)c(S(=O)(=O)NCCN2CCOCC2)c1 [Compound 95, 5-Cyano-2-(2,5-dichlorophenoxy)-N-(2-morpholinoethyl)benzenesulfonamide]",100 to 500
8,"CN1CCN(S(=O)(=O)c2cc(C#N)ccc2Oc2cc(Cl)ccc2Cl)CC1 [Compound 96, 4-(2,5-Dichlorophenoxy)-3-(4-methylpiperazin-1-ylsulfonyl)benzonitrile]",25 to 100
9,"CC(C)(O)C1CCN(S(=O)(=O)c2cc(C#N)ccc2Oc2cc(Cl)ccc2Cl)CC1 [Compound 97, 4-(2,5-Dichlorophenoxy)-3-(4-(2-hydroxypropan-2-yl)piperidin-1-ylsulfonyl)benzonitrile]",100 to 500
10,CCN1CCN(S(=O)(=O)c2cc([N+](=O)[O-])ccc2Sc2cc(Cl)ccc2Cl)CC1 [Compound 99],10 to 25
11,"CCN1CCN(S(=O)(=O)c2cc([N+](=O)[O-])ccc2Oc2cc(Cl)ccc2Cl)CC1 [Compound 100, 1-(2-(2,5-Dichlorophenoxy)-5-nitrophenylsulfonyl)-4-ethylpiperazine]",≤ 10
12,"CCN1CCN(S(=O)(=O)c2cc([N+](=O)[O-])ccc2Sc2cc(C)ccc2C)CC1 [Compound 101, 1-(2-(2,5-Dimethylphenylthio)-5-nitrophenylsulfonyl)-4-ethylpiperazine]",> 5
13,"CCN1CCN(S(=O)(=O)c2cc([N+](=O)[O-])ccc2Oc2cc(C)ccc2C)CC1 [Compound 102, 1-(2-(2,5-Dimethylphenoxy)-5-nitrophenylsulfonyl)-4-ethylpiperazine]",> 5
14,"CC1CN(S(=O)(=O)c2cc([N+](=O)[O-])ccc2Sc2cc(Cl)ccc2Cl)CC(C)N1 (stereo not drawn) [Compound 103, 1-(2-(2,5-Dichlorophenylthio)-5-nitrophenylsulfonyl)-3,5-dimethylpiperazine]",> 5
15,"Cc1ccc(C)c(Sc2ccc([N+](=O)[O-])cc2S(=O)(=O)N2CC(C)NC(C)C2)c1 (stereo not drawn) [Compound 105, 1-(2-(2,5-Dimethylphenylthio)-5-nitrophenylsulfonyl)-3,5-dimethylpiperazine]",> 5
16,"Cc1ccc(C)c(Oc2ccc([N+](=O)[O-])cc2S(=O)(=O)N2CC(C)NC(C)C2)c1 (stereo not drawn) [Compound 106, 1-(2-(2,5-Dimethylphenoxy)-5-nitrophenylsulfonyl)-3,5-dimethylpiperazine]",> 5
17,"CC(C)N1CCN(S(=O)(=O)c2cc([N+](=O)[O-])ccc2Oc2cc(Cl)ccc2Cl)CC1 [Compound 107, 1-(2-(2,5-Dichlorophenoxy)-5-nitrophenylsulfonyl)-4-isopropylpiperazine]",≤ 10
18,"CC(C)N1CCN(S(=O)(=O)c2cc([N+](=O)[O-])ccc2Sc2cc(Cl)ccc2Cl)CC1 [Compound 108, 1-(2-(2,5-Dichlorophenylthio)-5-nitrophenylsulfonyl)-4-isopropylpiperazine]",≤ 10
19,"Cc1ccc(C)c(Oc2ccc([N+](=O)[O-])cc2S(=O)(=O)N2CCN(C(C)C)CC2)c1 [Compound 109, 1-(2-(2,5-Dimethylphenoxy)-5-nitrophenylsulfonyl)-4-isopropylpiperazine]",> 5
20,"O=[N+]([O-])c1ccc(Sc2cc(Cl)ccc2Cl)c(S(=O)(=O)N2CCN(C3CCCCC3)CC2)c1 [Compound 118, 1-Cyclohexyl-4-(2-(2,5-dichlorophenylthio)-5-nitrophenylsulfonyl)piperazine]",10 to 25
21,"O=[N+]([O-])c1ccc(Oc2cc(Cl)ccc2Cl)c(S(=O)(=O)N2CCN(C3CCCCC3)CC2)c1 [Compound 119, 1-Cyclohexyl-4-(2-(2,5-dichlorophenoxy)-5-nitrophenylsulfonyl)piperazine]",≤ 10
22,"Cc1ccc(C)c(Sc2ccc([N+](=O)[O-])cc2S(=O)(=O)N2CCN(C3CCCCC3)CC2)c1 [Compound 120, 1-Cyclohexyl-4-(2-(2,5-dimethylphenylthio)-5-nitrophenylsulfonyl)piperazine]",> 5
23,"Cc1ccc(C)c(Oc2ccc([N+](=O)[O-])cc2S(=O)(=O)N2CCN(C3CCCCC3)CC2)c1 [Compound 121, 1-Cyclohexyl-4-(2-(2,5-dimethylphenoxy)-5-nitrophenylsulfonyl)piperazine]",≤ 10
24,"O=C1CN(S(=O)(=O)c2cc([N+](=O)[O-])ccc2Sc2cc(Cl)ccc2Cl)CCN1 [Compound 124, 4-(2-(2,5-Dichlorophenylthio)-5-nitrophenylsulfonyl)piperazin-2-one]",≤ 10
25,"Cc1ccc(C)c(Sc2ccc([N+](=O)[O-])cc2S(=O)(=O)N2CCNC(=O)C2)c1 [Compound 125, 4-(2-(2,5-Dimethylphenylthio)-5-nitrophenylsulfonyl)piperazin-2-one]",> 5
26,"O=C1CN(S(=O)(=O)c2cc([N+](=O)[O-])ccc2Oc2cc(Cl)ccc2Cl)CCN1 [Compound 126, 4-(2-(2,5-Dichlorophenoxy)-5-nitrophenylsulfonyl)piperazin-2-one]",10 to 25
27,"O=[N+]([O-])c1ccc(Sc2cc(Cl)ccc2Cl)c(S(=O)(=O)N2CCCNCC2)c1 [Compound 127, 1-(2-(2,5-Dichlorophenylthio)-5-nitrophenylsulfonyl)-1,4-diazepane]",> 5
28,"CN1CCN(S(=O)(=O)c2cc([N+](=O)[O-])ccc2Sc2cc(Cl)ccc2Cl)CC1 [Compound 133, 1-(2-(2,5-Dichlorophenylthio)-5-nitrophenylsulfonyl)-4-methylpiperazine]",> 5
29,Cc1ccc(C)c(Sc2ccc(C#N)cc2S(=O)(=O)N2CCS(=O)(=O)CC2)c1 [Compound 140],> 5
30,"O=[N+]([O-])c1ccc(Oc2cc(Cl)ccc2Cl)c(S(=O)(=O)N2CCNCC2)c1 [Compound 147, 1-(2-(2,5-Dichlorophenoxy)-5-nitrophenylsulfonyl)piperazine]",> 5

# Same assay, conditions: HCl: hydrochloric acid salt of the corresponding compound
row,SMILES,Ki [nM]
1,"CC(C)N1CCCN(S(=O)(=O)c2cc(C#N)ccc2Oc2cc(Cl)ccc2Cl)CC1 [Compound 98, 4-(2,5-Dichlorophenoxy)-3-(4-isopropyl-1,4-diazepan-1-ylsulfonyl)benzonitrile]",25 to 100
2,"O=[N+]([O-])c1ccc(Oc2cc(Cl)ccc2Cl)c(S(=O)(=O)N2CCNCC2)c1 [Compound 147, 1-(2-(2,5-Dichlorophenoxy)-5-nitrophenylsulfonyl)piperazine]",25 to 100
3,"Cc1ccc(C)c(Oc2ccc([N+](=O)[O-])cc2S(=O)(=O)N2CCNCC2)c1 [Compound 148, 1-(2-(2,5-Dimethylphenoxy)-5-nitrophenylsulfonyl)piperazine]",> 5
